Test results from patent US20230339991A1, “HYPOXIA-ACTIVATED DNA ALKYLATING AGENT AND MEDICAL USE THEREOF” (ASCENTAWITS PHARMACEUTICALS, LTD., priority 2020, published 2023).
Like-named read-outs stand apart in the source and are kept apart here.

What was measured:
[1] = Liver microsome stability, human; settings: for Remaining percentage after 30 minutes: Human
Description: (§1) 1) Two individual experiments were performed.
(§2) 1a) With NADPH: 10 μL of 20 mg/mL liver microsomes and 40 μL of 10 mM NADPH were added to the culture solution. The final concentrations of microsomes and NADPH were 0.5 mg/mL and 1 mM, respectively.
(§3) 1b) Without NADPH: 10 μL of 20 mg/mL liver microsomes and 40 μL of ultrapure H2O were added to the culture solution. The final concentration of microsomes was 0.5 mg/mL.
(§4) 3) 50 μL of aliquots were taken from the reaction solution at 0 min and 30 min. The reaction was terminated by adding 4 volumes of cold acetonitrile and four internal standards (IS, 100 nM alprazolam, 200 nM caffeine, 200 nM labetalol and 2 μM ketoprofen). The samples were centrifuged at 3, 220×g for 40 min. The aliquots of 100 μL of supernatant were mixed with 100 μL of ultrapure H2O and then used for LC-MS/MS analysis. All experiments were performed in duplicate.

[2] = Liver microsome stability, dog; settings: for Remaining percentage after 30 minutes: Dog
Description: as §1, §2, §3, §4

[3] = Liver microsome stability, rat; settings: for Remaining percentage after 30 minutes: Rat
Description: as §1, §2, §3, §4

[4] = Liver microsome stability, mouse; settings: for Remaining percentage after 30 minutes: Mouse
Description: as §1, §2, §3, §4

H460 cancer cells = experiment: Hypoxia-dependent proliferation inhibition, H460, CTG; type: cell-based, human; settings: for IC50: Homo sapiens, 3 h exposure
Excerpt: To determine the effect of the drug A according to the present invention on cancer cell proliferation, the antiproliferative activity of these compounds against the cancer cell was detected in a porous CTG-based assay. The effects of test compounds on cell proliferation under normoxic (21% O2) and hypoxic (<0.01% O2) conditions were compared. H460 cells were routinely cultured to 80%-90% of cell saturation, and when the number reached the requirement, resuspended with the corresponding culture medium, counted and prepared into cell suspension with appropriate density. The cell suspension was added to two types of 24-well plates, 495 μL per well with 1×10^4/well of cell density. 24-well plates inserted with glass insert were used for hypoxic tests, and ordinary plastic 24-well plates were used for normoxic tests. 5 μL of each compound was added to the hypoxic and normoxic reaction systems, respectively. After reacting for 3 hours in the hypoxic workstation or the normoxic incubator, the compounds were washed away using the culture medium and the system was placed in an incubator for another 72 hours. The final concentrations of each compound tested under normoxic conditions were as follows: TH-302 was 1000, 200, 40, 8, 1.6, 0.32 μM; test compound A (compound 32) was 1000, 200, 40, 8, 1.6, 0.32 μM; compound 26 was 500, 50, 5, 0.5, 0.05 μM. The final concentrations of each compound tested under hypoxic conditions were as follows: TH-302 was 10, 2, 0.4, 0.08, 0.016, 0.0032 μM; test compound A (compound 32) was 50, 5, 0.5, 0.05, 0.005, 0.0005 μM; compound 26 was 500, 50, 5, 0.5, 0.05 μM. After 72 hours of cell culture, 300 μL of culture medium was removed from each well of 24-well plate. 50 μL of CTG was added into each well. The plate was mixed and shaked for 2 min, and kept in dark for 15 minutes at room temperature. 100 μL per well of culture medium was transferred from 24-well plate to 96-well white plate, and the chemiluminescence signal value was read with Multifunctional enzyme marker with a reading time of 1000 ms. The IC50 was calculated using GraphPad Prism 5 software. […] The compound TH-302 (a hypoxic-activated prodrug entering phase III clinical studies, cas No. 918633-87-1, see the literature Sun J D, Liu Q, Wang J, et al. Selective tumor hypoxia targeting by hypoxia-activated prodrug TH-302 inhibits tumor growth in preclinical models of cancer. [J]. Clinical Cancer Research An Official Journal of the American Association for Cancer Research, 2012, 18(3): 758-70, structural formula is […]

hepatoma cell HepG2 = experiment: Hypoxia-dependent proliferation inhibition, HepG2; type: cell-based, human; settings: for IC50: Homo sapiens; for HCR (hypoxic cytotoxicity ratio): IC50 ratio normoxia/N2
Excerpt: To determine the effect of the drug A according to the present invention on cancer cell proliferation, the antiproliferative activity of these compounds against the cancer cell was detected in a porous CTG-based assay. The effects of test compounds on cell proliferation under normoxic (21% O2) and hypoxic (<0.01% O2) conditions were compared. H460 cells were routinely cultured to 80%-90% of cell saturation, and when the number reached the requirement, resuspended with the corresponding culture medium, counted and prepared into cell suspension with appropriate density. The cell suspension was added to two types of 24-well plates, 495 μL per well with 1×10^4/well of cell density. 24-well plates inserted with glass insert were used for hypoxic tests, and ordinary plastic 24-well plates were used for normoxic tests. 5 μL of each compound was added to the hypoxic and normoxic reaction systems, respectively. After reacting for 3 hours in the hypoxic workstation or the normoxic incubator, the compounds were washed away using the culture medium and the system was placed in an incubator for another 72 hours. The final concentrations of each compound tested under normoxic conditions were as follows: TH-302 was 1000, 200, 40, 8, 1.6, 0.32 μM; test compound A (compound 32) was 1000, 200, 40, 8, 1.6, 0.32 μM; compound 26 was 500, 50, 5, 0.5, 0.05 μM. The final concentrations of each compound tested under hypoxic conditions were as follows: TH-302 was 10, 2, 0.4, 0.08, 0.016, 0.0032 μM; test compound A (compound 32) was 50, 5, 0.5, 0.05, 0.005, 0.0005 μM; compound 26 was 500, 50, 5, 0.5, 0.05 μM. After 72 hours of cell culture, 300 μL of culture medium was removed from each well of 24-well plate. 50 μL of CTG was added into each well. The plate was mixed and shaked for 2 min, and kept in dark for 15 minutes at room temperature. 100 μL per well of culture medium was transferred from 24-well plate to 96-well white plate, and the chemiluminescence signal value was read with Multifunctional enzyme marker with a reading time of 1000 ms. The IC50 was calculated using GraphPad Prism 5 software. […] The compound TH-302 (a hypoxic-activated prodrug entering phase III clinical studies, cas No. 918633-87-1, see the literature Sun J D, Liu Q, Wang J, et al. Selective tumor hypoxia targeting by hypoxia-activated prodrug TH-302 inhibits tumor growth in preclinical models of cancer. [J]. Clinical Cancer Research An Official Journal of the American Association for Cancer Research, 2012, 18(3): 758-70, structural formula is
Similarly, the above-mentioned three compounds were tested for the proliferation inhibition effect on hepatoma cell HepG2, and the results are shown in the following table 5.

[5] = NCI-H460, hypoxic (<0.01% O2), read-out: N2 IC50
[6] = N2 (hypoxic), read-out: IC50 N2
[7] = normoxia, read-out: IC50 Normoxia
[8] = NCI-H460, normoxic (21% O2), read-out: Normoxic IC50

SMILES: O=[N+]([O-])c1ccc([C@@H](OP(=O)(N2CC2)N2CC2)C(F)(F)F)c2ccccc12 (single isomer, unassigned) [Compound C]
- Remaining percentage after 30 minutes ([1]; without NADPH): 82.15%
- Remaining percentage after 30 minutes ([2]; with NADPH): 31.16%
- Remaining percentage after 30 minutes ([2]; without NADPH): 101.62%
- Remaining percentage after 30 minutes ([3]; with NADPH): 71.05%
- Remaining percentage after 30 minutes ([3]; without NADPH): 111.15%
- Remaining percentage after 30 minutes ([4]; with NADPH): 102.89%
- Remaining percentage after 30 minutes ([4]; without NADPH): 103.07%

SMILES: O=[N+]([O-])c1ccc(C(OP(=O)(N2CC2)N2CC2)C(F)(F)F)c2ccccc12 (racemic) [Compound A]
- IC50 ratio: Normoxia/N2 (H460 cancer cells): 12.5
- IC50 (H460 cancer cells; [5]): 0.04 µM
- IC50 (hepatoma cell HepG2; [6]): 4.78 µM
- IC50 (hepatoma cell HepG2; [7]): 20.6 µM
- HCR (hypoxic cytotoxicity ratio) (hepatoma cell HepG2): 4.31
- stability in liver microsomes ([1]; human): relatively stable
- stability in liver microsomes ([2]; canine): not stable
- stability in liver microsomes ([3]; rat): not stable
- stability in liver microsomes ([4]; mouse): relatively stable

SMILES: Cn1c(COP(=O)(NCCBr)NCCBr)cnc1[N+](=O)[O-] [TH-302, Evofosfamide]
- IC50 ratio: Normoxia/N2 (H460 cancer cells): 680
- IC50 (H460 cancer cells; [5]): 0.02 µM
- IC50 (H460 cancer cells; [8]): 13.6 µM
- IC50 (hepatoma cell HepG2; [6]): 12.4 µM
- IC50 (hepatoma cell HepG2; [7]): 918 µM
- HCR (hypoxic cytotoxicity ratio) (hepatoma cell HepG2): 72.82

SMILES: CC(OP(=O)(N1CC1)N1CC1)c1ccc([N+](=O)[O-])c2ccccc12 (stereo not drawn) [Compound D]
- IC50 ratio: Normoxia/N2 (H460 cancer cells): 20
- IC50 (H460 cancer cells; [5]): 0.04 µM
- IC50 (H460 cancer cells; [8]): 0.8 µM
- IC50 (hepatoma cell HepG2; [6]): 1.5 µM
- IC50 (hepatoma cell HepG2; [7]): 16.7 µM
- HCR (hypoxic cytotoxicity ratio) (hepatoma cell HepG2): 11.13
- Remaining percentage after 30 minutes ([1]; with NADPH, 2 μM): 74.28%
- Remaining percentage after 30 minutes ([1]; without NADPH): 107.67%
- Remaining percentage after 30 minutes ([2]; with NADPH): 9.97%
- Remaining percentage after 30 minutes ([2]; without NADPH): 99.10%
- Remaining percentage after 30 minutes ([3]; with NADPH): 6.81%
- Remaining percentage after 30 minutes ([3]; without NADPH): 103.00%
- Remaining percentage after 30 minutes ([4]; with NADPH): 32.37%
- Remaining percentage after 30 minutes ([4]; without NADPH): 96.37%
